Key:
[1] = biological target: T1, S296A mutation in α3GlyR (Homo sapiens, UniProt O75311, S329A); assay: Electrophysiology on Xenopus laevis oocytes, S296A mutant; type: cell-based; conditions: EC2 agonist, 10 μM compound
T1 construct: expressed in transfected cells; host or cells: Xenopus laevis oocytes
T1 sequence (O75311 34-464 S329A): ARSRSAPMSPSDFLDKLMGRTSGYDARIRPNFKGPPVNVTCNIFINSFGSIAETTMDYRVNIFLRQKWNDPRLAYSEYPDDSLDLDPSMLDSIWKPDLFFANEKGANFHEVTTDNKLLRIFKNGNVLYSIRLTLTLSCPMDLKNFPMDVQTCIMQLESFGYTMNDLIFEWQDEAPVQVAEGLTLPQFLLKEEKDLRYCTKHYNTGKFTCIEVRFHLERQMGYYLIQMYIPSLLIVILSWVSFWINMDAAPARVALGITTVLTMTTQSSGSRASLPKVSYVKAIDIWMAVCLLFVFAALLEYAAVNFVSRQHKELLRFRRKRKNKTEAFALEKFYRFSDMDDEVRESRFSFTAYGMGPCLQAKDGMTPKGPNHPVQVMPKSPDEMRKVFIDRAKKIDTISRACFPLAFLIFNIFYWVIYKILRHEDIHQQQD
Experimental: (§1) MJPY1 potentiates α3GlyR through binding to the THC-binding site near S296 in the transmembrane domain (TMD). Like α3GlyR, but unlike ELIC, the chimera ELIC-α3GlyR containing the α3GlyR TMD is potentiated by MJPY1. The S296A mutation in α3GlyR abolishes compound 1 (MJPY1)'s potentiation. Data were recorded at EC2 agonist for the indicated channels and are reported as the ratio of currents in the presence (I) and absence (Io) of 10 μM compound 1 (MJPY1). Error bars represent SEM (n≥4 oocytes).

[2] = biological target: T2, CB1 (Homo sapiens, UniProt P21554); assay: PRESTO-TANGO functional assay CB1; type: cell-based; conditions: against positive controls, n=3
T2 construct: expressed in transfected cells
T2 sequence (P21554 whole entry): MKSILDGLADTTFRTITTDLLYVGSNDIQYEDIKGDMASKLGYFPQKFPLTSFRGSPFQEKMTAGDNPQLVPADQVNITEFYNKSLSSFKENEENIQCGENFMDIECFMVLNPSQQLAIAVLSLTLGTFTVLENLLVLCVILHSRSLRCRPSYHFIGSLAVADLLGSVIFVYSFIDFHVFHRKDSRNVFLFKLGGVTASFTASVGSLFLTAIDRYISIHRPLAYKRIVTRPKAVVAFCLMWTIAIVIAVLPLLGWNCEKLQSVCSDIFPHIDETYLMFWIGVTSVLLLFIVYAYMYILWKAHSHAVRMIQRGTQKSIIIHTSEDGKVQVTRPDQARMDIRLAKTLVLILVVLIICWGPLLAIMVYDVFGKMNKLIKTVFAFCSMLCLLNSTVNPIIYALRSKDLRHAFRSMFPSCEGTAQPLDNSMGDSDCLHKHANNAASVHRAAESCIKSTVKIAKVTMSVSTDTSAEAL
Experimental: (§2) The specificity of compound 1 (MJPY1) to act only on glycine receptors was determined. No cross reactivity with other commonly known receptors was detected (FIG. 16 and Table 2). […] Activity is reported in relative luminescence units (RLU) as mean and SEM (n=3).

[3] = system: chimera ELIC-α3GlyR containing the α3GlyR TMD; assay: Electrophysiology on Xenopus laevis oocytes, chimera; type: cell-based; conditions: EC2 agonist, 10 μM compound
Experimental: as §1

[4] = system: mice; assay: Two-plate thermal preference test (30° C. vs 55° C.); type: in vivo
Experimental: Responses to the two-plate thermal preference test were assessed under naïve conditions and 1 hour after administration of 0.2 mg/kg compound 1, 0.1 mg/kg morphine, or 0.2 mg/kg compound 1+0.1 mg/kg morphine. Unrestrained mice were exposed to plates set to normal and hot temperatures (30° C. and 55° C., respectively). Temperature preference was measured by percentage time spent on the hot plate (55° C.) over the course of 4 minutes, where 50% indicates no preference between the two temperatures. […] Error bars designate the standard error of the mean (n≥5).
Unrestrained mice were exposed to plates set to normal and hot temperatures (30° C. and 55° C., respectively) for 10 minutes. […] Error bars designate the standard error of the mean (n=4).
The percent inactivity on the 55° C. plate (mean±SEM) is a measure of heat tolerance. Significance was assessed by one-way ANOVA with LSD post-hoc test.

[5] = system: TA100 strain Salmonella typhimurium; assay: In vitro Ames test; type: cell-based; conditions: S9 rat liver extract
Experimental: (§3) Toxicity was evaluated using in vitro Ames test and in vivo immune responses flow cytometry. Compound 1 (MJPY1) at each concentration was tested in three 48-well plates using the TA100 strain Salmonella typhimurium and S9 rat liver extract for base-pair substitution mutations. Error bars represent SEM. Significance (p<0.05) was evaluated compared to the control (0 μM) using one-way ANOVA with the Bonferroni post-hoc test. FIGS. 15A and 15B show flow cytometry evaluation of common inflammatory markers in the liver and spleen of mice in response to compound 1 (MJPY1) treatment. Mice received either 2 mg/kg of MJPY1 (right) or vehicle (left) ˜16 hours prior to sacrifice and tissue collection. Significant differences between the treatment and control were observed only for decreased CD11b+ in the liver of mice treated with MJPY1 (p<0.001). […] Results were analyzed by one-way ANOVA with Bonferroni post-hoc test.

[6] = biological target: T3, 5-HT3R (Homo sapiens, UniProt P46098); assay: Radioligand binding assay, off-target profiling; conditions: 10 M MJPY1, mean, n = 4
T3 sequence (P46098 24-478): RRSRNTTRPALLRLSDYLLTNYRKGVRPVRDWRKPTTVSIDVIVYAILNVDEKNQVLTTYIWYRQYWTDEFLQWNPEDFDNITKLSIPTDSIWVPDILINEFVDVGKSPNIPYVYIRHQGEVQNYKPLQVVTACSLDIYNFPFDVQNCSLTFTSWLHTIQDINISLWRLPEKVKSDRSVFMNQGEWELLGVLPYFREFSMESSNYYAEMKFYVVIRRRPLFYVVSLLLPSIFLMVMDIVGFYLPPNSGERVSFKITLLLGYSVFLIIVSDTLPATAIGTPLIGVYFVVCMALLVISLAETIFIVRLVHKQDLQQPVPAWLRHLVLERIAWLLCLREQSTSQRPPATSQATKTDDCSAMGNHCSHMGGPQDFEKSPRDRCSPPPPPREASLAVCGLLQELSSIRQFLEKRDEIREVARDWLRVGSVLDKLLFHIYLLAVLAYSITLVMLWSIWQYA

[7] = system: inflammatory markers in the liver and spleen of mice; assay: In vivo immune responses by flow cytometry; conditions: 2 mg/kg, ~16 hours prior to sacrifice
Experimental: as §3

[8] = biological target: hERG (Homo sapiens, UniProt Q12809); assay: Radioligand binding assay, off-target profiling; conditions: 10 µM MJPY1, mean, n = 4
hERG, sequence (Q12809 whole entry): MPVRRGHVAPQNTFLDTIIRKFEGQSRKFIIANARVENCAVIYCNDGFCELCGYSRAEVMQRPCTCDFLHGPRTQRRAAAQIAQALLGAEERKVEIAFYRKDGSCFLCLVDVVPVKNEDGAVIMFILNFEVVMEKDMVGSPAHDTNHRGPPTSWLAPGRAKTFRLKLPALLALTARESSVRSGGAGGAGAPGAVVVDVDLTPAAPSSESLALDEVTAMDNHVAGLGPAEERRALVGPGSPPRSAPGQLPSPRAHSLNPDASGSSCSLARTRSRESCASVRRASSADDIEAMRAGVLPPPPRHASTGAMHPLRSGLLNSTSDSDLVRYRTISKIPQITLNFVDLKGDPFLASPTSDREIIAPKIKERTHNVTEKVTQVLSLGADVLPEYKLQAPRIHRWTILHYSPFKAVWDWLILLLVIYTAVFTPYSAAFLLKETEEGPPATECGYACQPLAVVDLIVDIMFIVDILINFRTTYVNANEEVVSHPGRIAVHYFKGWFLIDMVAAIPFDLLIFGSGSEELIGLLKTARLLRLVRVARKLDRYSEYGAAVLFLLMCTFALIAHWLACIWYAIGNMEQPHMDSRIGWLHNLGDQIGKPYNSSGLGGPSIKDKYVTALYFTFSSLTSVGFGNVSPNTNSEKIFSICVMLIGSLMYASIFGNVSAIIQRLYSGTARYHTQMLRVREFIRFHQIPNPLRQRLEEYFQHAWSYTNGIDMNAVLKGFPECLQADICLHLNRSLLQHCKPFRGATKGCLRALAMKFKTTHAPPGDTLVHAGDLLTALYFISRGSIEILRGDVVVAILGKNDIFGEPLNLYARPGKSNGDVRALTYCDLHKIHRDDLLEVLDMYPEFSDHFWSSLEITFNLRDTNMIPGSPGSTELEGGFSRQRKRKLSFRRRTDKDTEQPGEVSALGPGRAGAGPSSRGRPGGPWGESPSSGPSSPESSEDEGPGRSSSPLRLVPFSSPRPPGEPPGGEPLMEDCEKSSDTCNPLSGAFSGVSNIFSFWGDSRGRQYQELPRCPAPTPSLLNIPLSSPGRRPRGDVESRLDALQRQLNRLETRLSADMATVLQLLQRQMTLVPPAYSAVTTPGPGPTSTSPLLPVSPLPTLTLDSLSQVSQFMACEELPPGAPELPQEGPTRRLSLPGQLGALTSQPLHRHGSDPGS

[9] = system: NMDAR; assay: Radioligand binding assay, off-target profiling; conditions: 10 M MJPY1, mean, n = 4
[10] = biological target: 4 2-nAChR (Homo sapiens, UniProt P17787+P43681); assay: Radioligand binding assay, off-target profiling; conditions: 10 M MJPY1, mean, n = 4
4 2-nAChR, sequence (P43681 29-627 limits assumed): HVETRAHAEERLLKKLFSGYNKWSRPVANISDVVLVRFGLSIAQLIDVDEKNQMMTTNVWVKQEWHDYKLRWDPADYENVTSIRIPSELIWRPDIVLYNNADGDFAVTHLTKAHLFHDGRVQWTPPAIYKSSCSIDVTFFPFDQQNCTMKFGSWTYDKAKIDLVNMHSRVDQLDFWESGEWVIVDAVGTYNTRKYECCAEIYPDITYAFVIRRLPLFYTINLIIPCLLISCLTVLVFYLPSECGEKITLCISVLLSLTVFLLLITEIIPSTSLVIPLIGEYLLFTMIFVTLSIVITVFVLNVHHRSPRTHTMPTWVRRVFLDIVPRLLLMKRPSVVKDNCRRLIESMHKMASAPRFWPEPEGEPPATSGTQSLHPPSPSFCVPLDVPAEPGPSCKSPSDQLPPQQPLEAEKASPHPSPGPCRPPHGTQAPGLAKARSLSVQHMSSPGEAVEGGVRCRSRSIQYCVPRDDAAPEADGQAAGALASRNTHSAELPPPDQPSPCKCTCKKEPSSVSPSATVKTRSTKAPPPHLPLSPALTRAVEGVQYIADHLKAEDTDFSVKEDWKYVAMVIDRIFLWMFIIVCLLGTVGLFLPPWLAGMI
4 2-nAChR, sequence (P17787 26-502): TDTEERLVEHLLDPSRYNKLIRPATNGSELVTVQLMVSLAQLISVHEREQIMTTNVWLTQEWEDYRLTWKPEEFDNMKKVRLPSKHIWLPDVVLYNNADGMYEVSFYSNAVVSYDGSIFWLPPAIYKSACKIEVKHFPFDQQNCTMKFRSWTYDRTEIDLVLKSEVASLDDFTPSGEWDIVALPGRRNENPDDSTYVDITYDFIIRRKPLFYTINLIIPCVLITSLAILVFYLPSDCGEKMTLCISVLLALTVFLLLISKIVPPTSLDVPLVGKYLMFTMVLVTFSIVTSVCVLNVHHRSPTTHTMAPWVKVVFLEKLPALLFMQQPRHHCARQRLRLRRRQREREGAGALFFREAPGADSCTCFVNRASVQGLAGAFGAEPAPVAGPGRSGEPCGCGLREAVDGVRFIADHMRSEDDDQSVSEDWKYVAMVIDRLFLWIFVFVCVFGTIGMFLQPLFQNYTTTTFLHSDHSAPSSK

[11] = system: C57Bl/6J mice; assay: Hargreaves test in C57Bl/6J mice; type: in vivo
Experimental: In vivo mouse behavior tests validated the analgesic action of the representative compounds in response to inflammation. Responses of C57Bl/6J mice to the Hargreaves test (Pain, 32:77-88, 1988) were assessed pre- and post-application of compound 1 alone (white circles, application time=0 hours). […] Error bars designate the standard error of the mean (n≥4).

[12] = biological target: T4, CB2 (Homo sapiens, UniProt P34972); assay: PRESTO-TANGO functional assay CB2; type: cell-based; conditions: against positive controls, n=3
T4 construct: expressed in transfected cells
T4 sequence (P34972 whole entry): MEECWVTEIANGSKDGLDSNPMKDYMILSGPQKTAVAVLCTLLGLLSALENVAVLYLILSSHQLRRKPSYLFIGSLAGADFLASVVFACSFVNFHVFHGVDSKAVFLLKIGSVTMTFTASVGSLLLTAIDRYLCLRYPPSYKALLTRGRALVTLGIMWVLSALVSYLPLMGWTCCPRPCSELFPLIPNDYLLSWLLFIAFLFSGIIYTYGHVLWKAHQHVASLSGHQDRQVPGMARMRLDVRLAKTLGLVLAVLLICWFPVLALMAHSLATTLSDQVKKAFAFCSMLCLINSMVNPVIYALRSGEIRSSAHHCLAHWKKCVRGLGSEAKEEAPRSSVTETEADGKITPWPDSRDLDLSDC
Experimental: as §2

[13] = biological target: MOR (Homo sapiens, UniProt P35372); assay: Radioligand binding assay, off-target profiling; conditions: 10 M MJPY1, mean, n = 4
MOR, sequence (P35372 whole entry): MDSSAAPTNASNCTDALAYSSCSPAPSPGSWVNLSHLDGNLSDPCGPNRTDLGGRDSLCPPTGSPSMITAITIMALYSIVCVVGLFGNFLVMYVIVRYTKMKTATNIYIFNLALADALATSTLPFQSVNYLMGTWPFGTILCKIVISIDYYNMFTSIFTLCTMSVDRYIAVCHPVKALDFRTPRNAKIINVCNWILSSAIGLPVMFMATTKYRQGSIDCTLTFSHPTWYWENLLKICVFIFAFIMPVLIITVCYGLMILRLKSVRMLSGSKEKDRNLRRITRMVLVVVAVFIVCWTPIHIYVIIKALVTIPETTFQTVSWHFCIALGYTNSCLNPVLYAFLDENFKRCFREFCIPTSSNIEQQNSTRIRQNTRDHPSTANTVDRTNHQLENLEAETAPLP

NC(=O)c1cccc(CNC(=O)c2ccc3c4c(cccc24)CC3)c1 [compound 1, N-[(3-carbamoylphenyl)-methyl]-1,2-dihydroacenaphthylene-5-carboxamide]
potentiation of α3GlyR S296A (I/Io) [1]: abolishes
agonist or antagonist activity on CB1 (RLU) [2]: no agonist (top) or antagonist (bottom) activity
potentiation of chimera ELIC-α3GlyR (I/Io) [3]: potentiated
analgesic action compared with morphine (percent inactivity on the 55° C. plate) ([4]; 0.1 mg/kg i.p., male CD1 mice, 24 hr after CFA, 1 hr after treatment, same dose): better than morphine
percentage time spent on the hot plate (55° C.) compared to naïve mice ([4]; normal nociception, 1 hour after 0.2 mg/kg compound 1, 0.1 mg/kg morphine, or both, 4 minutes): no significant analgesic response
mutagenic activity (base-pair substitution mutations) [5]: little mutagenic activity
% Inhibition 5-HT3R [6]: −5.7%
overall immune response to treatment ([7]; liver and spleen): minimal immune response
CD11b+ in the liver vs vehicle ([7]; p<0.001): decreased
inhibition at 10 µM [8]: -19.5%
% Inhibition NMDAR [9]: −2.4%
% Inhibition 4 2-nAChR [10]: −1.8%
response time for paw withdrawal ([11]; maximum CFA-induced hyperalgesic conditions (24 hours post CFA)): increase in response time
response time for paw withdrawal ([11]; normal nociceptive conditions): no significant effect
agonist or antagonist activity on CB2 (RLU) [12]: no agonist (top) or antagonist (bottom) activity
% Inhibition MOR [13]: 20.6%

— patent US12194033B2, “Glycine receptor modulators and methods of use” (University of Pittsburgh—Of the Commonwealth System of …, priority 2017, dated 2025)
